Data taken from EP2914280B1, “SOMATOSTATIN-DOPAMINE CHIMERIC ANALOGS” (IPSEN PHARMA S.A.S., priority 2012, dated 2014).
Like-named read-outs stand apart in the source and are kept apart here. Numbered stars: 1 amine (or outer) side, 2 acyl side, 3 side chain; on linkers, the order of the positions; unused ones are H or OH. Bridge positions count the residues as written; N and C are the ends. Square brackets hold non-standard residues; d marks the D form. Peptide text beside a SMILES is read from it. * marks the point of attachment. X1 = CN1C[C@H](CSCCN(CCSC[C@@H]2C[C@@H]3c4cccc5[nH]cc(c45)C[C@H]3N(C)C2)[C@H](CCCCN[*:2])C(=O)[*:1])C[C@@H]2c3cccc4[nH]cc(c34)C[C@H]21; X2 = CN1C[C@H](CSCC(=O)*)C[C@@H]2c3cccc4[nH]cc(c34)C[C@H]21; dDab = NCC[C@@H](N)C(=O)O

Key:
hSSTR2 [1] = molecular target: T1, hSSTR2 (Homo sapiens, UniProt P30874); test: Somatostatin receptor radioligand binding assay (hSSTR2);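 note: radioligand displacement on membranes of CHO-K1 cells stably transfected with human SSTR2, specific binding taken as total minus binding left with 1000 nM SRIF-14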
T1 construct: host or cells: 'Cells expressing hSSTR2'
T1 sequence (P30874 whole entry): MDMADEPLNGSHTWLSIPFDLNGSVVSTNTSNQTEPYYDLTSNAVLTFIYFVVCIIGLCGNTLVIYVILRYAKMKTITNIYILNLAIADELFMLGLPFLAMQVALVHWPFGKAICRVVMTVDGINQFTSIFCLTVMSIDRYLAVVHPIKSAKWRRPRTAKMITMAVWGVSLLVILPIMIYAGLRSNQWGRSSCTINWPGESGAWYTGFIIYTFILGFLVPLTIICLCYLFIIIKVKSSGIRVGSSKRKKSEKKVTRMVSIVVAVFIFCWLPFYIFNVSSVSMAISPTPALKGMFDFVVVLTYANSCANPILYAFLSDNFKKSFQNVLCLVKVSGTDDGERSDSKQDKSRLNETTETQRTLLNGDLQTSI
Description: The affinities of a test compound for the human somatostatin receptors were determined by radioligand binding assays in CHO-K1 cells stably transfected with each of the human somatostatin receptor subtypes, hSSTR1-5. […] Clonal cell lines stably expressing each of the somatostatin receptors were obtained by transfection into CHO-K1 cells (ATCC) and subsequently selected with culture media containing 0.8 mg/mL of G418 (Life Technologies).
Membranes for in vitro receptor binding assays were obtained by the following procedures. […] The supernatant containing the plasma membranes was centrifuged at 100,000 x g for 30 minutes and the pellet was resuspended in buffer containing 20 mM glycine-glycine, 1 mM MgCl2, 250 mM sucrose, pH 7.2, for storage at -80°C.
For the SSTR1, 2 and 5 assays, membranes and various concentrations of test compounds were incubated in 96-well plates for 60 minutes at 25°C with 0.05 nM [^125I-Tyr^11]-SRIF-14 (for hSSTR1; PerkinElmer Life Science), 0.05 nM [^125I-Tyr]-seglitide (for hSSTR2; PerkinElmer Life Science) or 0.05 nM [^125I-Tyr]-[DPhe-cyclo(Cys-Tyr-DTrp-Lys-Val-Cys)-Thr-NH2] (for hSSTR5; PerkinElmer Life Science) in 50 mM HEPES, 0.2% BSA, 0.1 mM MgCl2, pH 7.5.
The incubations were terminated by rapid filtration through GF/C glass microfiber filter plates (pre-wet with 0.3% polyethyleneimine and 0.1 % BSA) using a 96-well cell harvester (Brandel). Plates were washed six times with 1 mL/well aliquots of ice-cold buffer containing 50 mM Tris buffer, pH 7.7. Specific binding was defined as the total radioligand bound minus the bound in the presence of 1000 nM SRIF-14.

hSSTR2 [2] = molecular target: T1, hSSTR2; test: Intracellular calcium mobilization assay (FLIPR Calcium 4), hSSTR2; assay type: cell-based;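 note: agonist activity measured in cells expressing hSSTR2, seeded in 384-well plates, loaded with Calcium 4 dye, read-out as rise in intracellular calcium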
Description: (§1) The ability of select compounds according to the present invention to activate hSSTR2 and hDRD2 was determined by the intracellular calcium mobilization assay using FLIPR Calcium 4 assay kit (Molecular Devices).
(§2) Cells expressing hSSTR2 or hDRD2 were plated in 384-well microplates in tissue culture media and incubated for 16-24 hours at 37°C in a humidified atmosphere with 5% CO2. Medium was replaced by loading buffer containing Hank's buffered saline, 20 mM HEPES, 2.5 mM probenecid and Calcium 4 dye, and the plates were incubated at 37°C for 60 minutes.

hDRD2 [3] = molecular target: T2, hDRD2 (Homo sapiens, UniProt P14416); test: cell-based; parameters: host or cells: 'Cells expressing hDRD2'; conditions: for Emax: read-out: hDRD2 %Emax ± SEM
T2 sequence (P14416 whole entry): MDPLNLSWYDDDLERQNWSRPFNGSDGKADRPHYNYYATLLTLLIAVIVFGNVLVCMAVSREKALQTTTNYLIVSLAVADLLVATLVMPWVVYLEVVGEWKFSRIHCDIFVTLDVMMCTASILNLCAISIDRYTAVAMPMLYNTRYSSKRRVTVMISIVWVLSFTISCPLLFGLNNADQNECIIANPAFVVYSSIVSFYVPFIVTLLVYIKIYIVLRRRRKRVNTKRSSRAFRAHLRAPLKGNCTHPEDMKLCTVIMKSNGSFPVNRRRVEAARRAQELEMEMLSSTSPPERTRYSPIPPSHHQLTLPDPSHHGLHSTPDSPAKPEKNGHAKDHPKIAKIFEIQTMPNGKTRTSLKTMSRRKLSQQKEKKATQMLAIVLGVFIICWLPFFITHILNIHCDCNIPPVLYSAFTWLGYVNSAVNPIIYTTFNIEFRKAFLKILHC
Description: as §1, §2

hDRD2 [4] = molecular target: T2, hDRD2; test: biochemical; assay type: binding; parameters: expressed in transfected cells; host or cells: CHO-K1, pcDNA3.1/GS, zeocin-selected clonal line; membranes
[5] = CHO-K1 cell membranes, […] [3H]-spiperone, 60 minutes at 25°C, read-out: hDRD2 Ki (nM) ± SEM

Row | SMILES | Ki (hSSTR2 [1]) [nM] | EC50 (hSSTR2 [2]) [nM] | EC50 (hDRD2 [3]) [nM] | Emax (hDRD2 [3]) [%] | Ki (hDRD2 [4]) [nM] | Ki (hDRD2 [4]; [5]) [nM] | Ki (hSSTR2 [1]; CHO-K1 cell membranes, 0.05 nM [125I-Tyr]-seglitide, 60 minutes at 25°C, read-out: hSSTR2 Ki (nM) ± SEM) [nM] | Emax (hSSTR2 [2]; read-out: hSSTR2 %Emax ± SEM) [%]
1 | C[C@@H](O)[C@@H]1NC(=O)[C@H](CCCCN)NC(=O)[C@@H](Cc2c[nH]c3ccccc23)NC(=O)[C@H](Cc2ccccc2)NC(=O)[C@H](Cc2ccccc2)NC(=O)[C@H](CCCNC(=N)N)NC(=O)[C@H](NCCSC[C@@H]2C[C@@H]3c4cccc5[nH]cc(c45)C[C@H]3N(C)C2)CCCCNC(=O)[C@H](Cc2ccc(F)c(F)c2)NC1=O [Compound 6A, Dop1-psi(CH2NH)-cyclo(DLys-Arg-Phe-Phe-DTrp-Lys-Thr-3,4FPhe)] | 0.35 | 15.7 ± 4.3 | 62.1 ± 16.4 | 91.5 ± 3 | 16.9 ± 0.2 |  |  | 
2 | C[C@@H](O)[C@@H]1NC(=O)[C@H](CCCCN)NC(=O)[C@@H](Cc2c[nH]c3ccccc23)NC(=O)[C@H](Cc2ccccc2)NC(=O)[C@H](Cc2ccccc2)NC(=O)[C@H](CCCNC(=N)N)NC(=O)[C@H](NCCSC[C@@H]2C[C@@H]3c4cccc5[nH]cc(c45)C[C@H]3N(C)C2)CCCCNC(=O)[C@H](Cc2c(F)c(F)c(F)c(F)c2F)NC1=O [Compound 6E, Dop1-psi(CH2NH)-cyclo(DLys-Arg-Phe-Phe-DTrp-Lys-Thr-2,3,4,5,6FPhe)] | 5.48 ± 3.38 | 223 ± 13.7 | 480 ± 125 | 54.1 ± 20.6 | 40.4 ± 13.2 |  |  | 
3 | C[C@@H](O)[C@@H]1NC(=O)[C@H](CCCCN)NC(=O)[C@@H](Cc2c[nH]c3ccccc23)NC(=O)[C@H](Cc2ccccc2)NC(=O)[C@H](Cc2ccccc2)NC(=O)[C@H](CCCNC(=N)N)NC(=O)[C@H](NCCCCC[C@@H]2C[C@@H]3c4cccc5[nH]cc(c45)C[C@H]3N(C)C2)CCCCNC(=O)[C@H](Cc2ccc(F)cc2)NC1=O [Compound 3, (D-6-methyl-8β-ergolinyl)-pentanoyl-psi(CH2NH)-cyclo(DLys-Arg-Phe-Phe-DTrp-Lys-Thr-4FPhe)] | 0.72 ± 0.17 | 137 ± 63.8 | 212 ± 85.6 | 84.1 ± 12.2 | 45.2 ± 4.9 |  |  | 
4 | C[C@@H](O)[C@@H]1NC(=O)[C@H](CCCCN)NC(=O)[C@@H](Cc2c[nH]c3ccccc23)NC(=O)[C@H](Cc2cccnc2)NC(=O)[C@H](Cc2ccccc2)NC(=O)[C@H](CCCNC(=N)N)NC(=O)[C@H](NC[C@H](Cc2ccc(O)cc2)NC(=O)CSC[C@@H]2C[C@@H]3c4cccc5[nH]cc(c45)C[C@H]3N(C)C2)CCCCNC(=O)[C@H](Cc2ccccc2)NC1=O [Compound 38, Dop1-Tyr-psi(CH2NH)-cyclo(DLys-Arg-Phe-3Pal-DTrp-Lys-Thr-Phe)] |  |  |  | 97.5 ± 0.3 |  | 179 ± 113 |  | 
5 | C[C@@H](O)[C@@H]1NC(=O)[C@H](CCCCN)NC(=O)[C@@H](Cc2c[nH]c3ccccc23)NC(=O)[C@H](Cc2ccccc2)NC(=O)[C@H](Cc2ccccc2)NC(=O)[C@H](CCCNC(=N)N)NC(=O)[C@H](NCCCC[C@@H]2C[C@@H]3c4cccc5[nH]cc(c45)C[C@H]3N(C)C2)CCCCNC(=O)[C@H](Cc2ccc(F)cc2)NC1=O [Compound 2, (D-6-methyl-8β-ergolinyl)-butanoyl-psi(CH2NH)-cyclo(DLys-Arg-Phe-Phe-DTrp-Lys-Thr-4FPhe)] | 0.79 ± 0.06 | 21.1 ± 6.7 | 55.7 ± 12.4 | 84 ± 7.6 | 6.9 ± 0.4 |  |  | 
6 | C[C@@H](O)[C@@H]1NC(=O)[C@H](CCCCN)NC(=O)[C@@H](Cc2c[nH]c3ccccc23)NC(=O)[C@H](Cc2ccccc2)NC(=O)[C@H](Cc2ccccc2)NC(=O)[C@H](CCCNC(=N)N)NC(=O)[C@H](NC[C@@H](Cc2ccc(O)cc2)NC(=O)CSC[C@@H]2C[C@@H]3c4cccc5[nH]cc(c45)C[C@H]3N(C)C2)CCCCNC(=O)[C@H](Cc2ccccc2)NC1=O [Compound 41, Dop1-DTyr-psi(CH2NH)-cyclo(DLys-Arg-Phe-Phe-DTrp-Lys-Thr-Phe)] |  |  |  | 91.2 |  | 8.5 ± 3.6 | 0.37 | 
7 | C[C@@H](O)[C@@H]1NC(=O)[C@H](CCCCN)NC(=O)[C@@H](Cc2c[nH]c3ccccc23)NC(=O)[C@H](Cc2ccncc2)NC(=O)[C@H](Cc2ccccc2)NC(=O)[C@H](CCCNC(=N)N)NC(=O)[C@H](NC[C@H](Cc2ccc(O)cc2)NC(=O)CS(=O)(=O)C[C@@H]2C[C@@H]3c4cccc5[nH]cc(c45)C[C@H]3N(C)C2)CCCCNC(=O)[C@H](Cc2ccccc2)NC1=O [Compound 21, Dop1(SO2)-Tyr-psi(CH2NH)-cyclo(DLys-Arg-Phe-4Pal-DTrp-Lys-Thr-Phe)] | 0.02 ± 0.01 | 0.9 ± 0.1 | 208 ± 26.8 | 92.1 ± 0.2 | > 1000 |  |  | 
8 | C[C@@H](O)[C@@H]1NC(=O)[C@H](CCCCN)NC(=O)[C@@H](Cc2c[nH]c3ccccc23)NC(=O)[C@H](Cc2ccccc2)NC(=O)[C@H](Cc2ccccc2)NC(=O)[C@H](CCCNC(=N)N)NC(=O)[C@@H](NC[C@H](Cc2ccc(O)cc2)NC(=O)CSC[C@@H]2C[C@@H]3c4cccc5[nH]cc(c45)C[C@H]3N(C)C2)CCCCNC(=O)[C@H](Cc2ccccc2)NC1=O [Compound 31, Dop1-Tyr-psi(CH2NH)-cyclo(Lys-Arg-Phe-Phe-DTrp-Lys-Thr-Phe)] | 0.51 ± 0.1 | 13.3 ± 0.9 | 37.7 ± 4.6 | 94.8 ± 9.7 | 38.6 ± 28.6 |  |  | 
9 | C[C@@H](O)[C@@H]1NC(=O)[C@H](CCCCN)NC(=O)[C@@H](Cc2c[nH]c3ccccc23)NC(=O)[C@H](Cc2ccccc2)NC(=O)[C@H](Cc2ccccc2)NC(=O)[C@H](CCCNC(=N)N)NC(=O)[C@H](NC[C@H](Cc2ccc(O)cc2)NC(=O)CS(=O)(=O)C[C@@H]2C[C@@H]3c4cccc5[nH]cc(c45)C[C@H]3N(C)C2)CCCCNC(=O)[C@H](Cc2ccc(F)cc2)NC1=O [Compound 19, Dop1(SO2)-Tyr-psi(CH2NH)-cyclo(DLys-Arg-Phe-Phe-DTrp-Lys-Thr-4FPhe)] | 0.16 ± 0.12 | 4.3 ± 1.2 | 701 ± 220 | 90.7 ± 5.7 | > 1000 |  |  | 
10 | C[C@@H](O)[C@@H]1NC(=O)[C@H](CCCCN)NC(=O)[C@@H](Cc2c[nH]c3ccccc23)NC(=O)[C@H](Cc2ccccc2)NC(=O)[C@H](Cc2ccccc2)NC(=O)[C@H](CCCNC(=N)N)NC(=O)[C@H](NCCSC[C@@H]2C[C@@H]3c4cccc5[nH]cc(c45)C[C@H]3N(C)C2)CCCCNC(=O)[C@H](Cc2ccccc2F)NC1=O [Compound 6D, Dop1-psi(CH2NH)-cyclo(DLys-Arg-Phe-Phe-DTrp-Lys-Thr-2FPhe)] | 0.54 ± 0.12 | 25 ± 7.7 | 64.5 ± 20.5 | 101 ± 2.7 | 31.8 ± 11.8 |  |  | 
11 | CC(=O)N(CCCN(C(C)=O)[C@@H]1CCCCNC(=O)[C@H](Cc2ccc(F)cc2)NC(=O)[C@H]([C@@H](C)O)NC(=O)[C@H](CCCCN)NC(=O)[C@@H](Cc2c[nH]c3ccccc23)NC(=O)[C@H](Cc2ccccc2)NC(=O)[C@H](Cc2ccccc2)NC(=O)[C@H](CCCNC(=N)N)NC1=O)C[C@@H]1C[C@@H]2c3cccc4[nH]cc(c34)C[C@H]2N(C)C1 [Compound 28, 3-[N-acetyl-N-(D-6-methyl-8β-ergolinylmethyl)]-aminopropionyl-psi(CH2NAc)-cyclo(DLys-Arg-Phe-Phe-DTrp-Lys-Thr-4FPhe)] | 0.75 ± 0.27 | 11.8 ± 7.6 | 265 ± 104 | 56 ± 9.1 | 39.9 ± 10.4 |  |  | 
12 | CC(=O)N(CCCNC(CN[C@@H]1CCCCNC(=O)[C@H](Cc2ccc(F)cc2)NC(=O)[C@H]([C@@H](C)O)NC(=O)[C@H](CCCCN)NC(=O)[C@@H](Cc2c[nH]c3ccccc23)NC(=O)[C@H](Cc2ccccc2)NC(=O)[C@H](Cc2ccccc2)NC(=O)[C@H](CCCNC(=N)N)NC1=O)Cc1ccc(O)cc1)C[C@@H]1C[C@@H]2c3cccc4[nH]cc(c34)C[C@H]2N(C)C1 (single isomer, unassigned) [Compound 28A, 3-[N-acetyl-N-(D-6-methyl-8β-ergolinylmethyl)]-aminopropionyl-psi(CH2NH)-Tyr-psi(CH2NH)-cyclo(DLys-Arg-Phe-Phe-DTrp-Lys-Thr-4FPhe)] | 0.04 ± 0.02 |  |  | 79.7 ± 11.4 | 14 ± 3.4 |  |  | 
13 | C[C@@H](O)[C@@H]1NC(=O)[C@H](CCCCN)NC(=O)[C@@H](Cc2c[nH]c3ccccc23)NC(=O)[C@H](Cc2ccccc2)NC(=O)[C@H](Cc2ccccc2)NC(=O)[C@H](CCCNC(=N)N)NC(=O)[C@H](NC(=O)[C@H](CCCCNC(=O)CSC[C@@H]2C[C@@H]3c4cccc5[nH]cc(c45)C[C@H]3N(C)C2)NC(=O)CSC[C@@H]2C[C@@H]3c4cccc5[nH]cc(c45)C[C@H]3N(C)C2)CCNC(=O)[C@H](Cc2ccccc2)NC1=O [Reference Compound C, Dopl-Lys(Dopl)-cyclo(DDab-Arg-Phe-Phe-DTrp-Lys-Thr-Phe), reference compound] (X2-K(X2)[dDab]RFF[dW]KTF; lactam 2-C (inferred)) |  |  |  | 101 ± 0.8 |  |  |  | 60.6 ± 3.2
14 | C[C@@H](O)[C@@H]1NC(=O)[C@H](CCCCN)NC(=O)[C@@H](Cc2c[nH]c3ccccc23)NC(=O)[C@H](Cc2ccccc2)NC(=O)[C@H](Cc2ccccc2)NC(=O)[C@H](CCCNC(=N)N)NC(=O)[C@H](N(CCSC[C@@H]2C[C@@H]3c4cccc5[nH]cc(c45)C[C@H]3N(C)C2)CCSC[C@@H]2C[C@@H]3c4cccc5[nH]cc(c45)C[C@H]3N(C)C2)CCCCNC(=O)[C@H](Cc2ccccc2)NC1=O [Compound 40, bis[Dop1-psi(CH2N)]-cyclo(DLys-Arg-Phe-Phe-DTrp-Lys-Thr-Phe)] (RFF[dW]KTF; linker N-C via X1) | 3.17 ± 1.41 | 27 ± 6.5 | 123 ± 6.5 | 91.5 |  |  |  | 
15 | C[C@@H](O)[C@@H]1NC(=O)[C@H](CCCCN)NC(=O)[C@@H](Cc2c[nH]c3ccccc23)NC(=O)[C@H](Cc2ccccc2)NC(=O)[C@H](Cc2ccccc2)NC(=O)[C@H](CCCNC(=N)N)NC(=O)[C@H](NC[C@H](Cc2ccc(O)cc2)NC(=O)CSC[C@@H]2C[C@@H]3c4cccc5[nH]cc(c45)C[C@H]3N(C)C2)CCCNC(=O)[C@H](Cc2ccccc2)NC1=O [Compound 30, Dop1-Tyr-psi(CH2NH)-cyclo(DOrn-Arg-Phe-Phe-DTrp-Lys-Thr-Phe)] | 0.4 ± 0.06 | 13.1 ± 4.2 |  |  |  |  |  | 
